Reference: patent US20080176862A1, “New Compounds 617” (ASTRAZENECA AB, priority 2006, published 2008)
Where a name gives a salt, the structure may show the parent alone.

These compounds were tested against T1, human β-Secretase (soluble part, AA1-AA460; sBACE-Fc) (Homo sapiens, UniProt P56817) (assay: TR-FRET assay). Conditions: IC50 (nM) in TR-FRET assay, substrate (Europium)CEVNLDAEFK(Qsy7) 100 nM, pH 4.5, 15 min at RT.
T1 construct: The soluble part of the human β-Secretase (AA1-AA460) was cloned into the ASP2-Fc10-1-IRES-GFP-neoK mammalian expression vector; made in house
Type: biochemical
Procedure: The enzyme used in the IGEN Cleavage-, Fluorescent-, TR-FRET- and BiaCore assays is described as follows:
The soluble part of the human β-Secretase (AA1-AA460) was cloned into the ASP2-Fc10-1-IRES-GFP-neoK mammalian expression vector. The gene was fused to the Fc domain of IgG1 (affinity tag) and stably cloned into HEK 293 cells. Purified sBACE-Fc is stored in Tris buffer, pH 9.2 and has a purity of 95%.
Enzyme was diluted to 6 μg/mL and the substrate (Europium)[…](Qsy7) to 200 nM in reaction buffer (NaAcetate, chaps, triton x-100, EDTA pH 4.5). Compounds were diluted to the desired concentration in dimethyl sulfoxide (final dimethyl sulfoxide concentration in assay is 5%). […] Enzyme (9 μL) and 1 μL of compound in dimethyl sulfoxide was added to the plate, mixed and pre-incubated for 10 min. Substrate (10 μL) was added and the reaction proceeded in the dark for 15 min at RT. The reaction was stopped with the addition of 7 μL NaAcetate, pH 9. The fluorescence of the product was measured on a Victor II plate reader with an excitation wavelength of 340 nm and an emission wavelength of 615 nm. […] The dimethyl sulfoxide control defined the 100% activity level and 0% activity was defined by exclusion of the enzyme (using reaction buffer instead).

T1 sequence (P56817 22-460): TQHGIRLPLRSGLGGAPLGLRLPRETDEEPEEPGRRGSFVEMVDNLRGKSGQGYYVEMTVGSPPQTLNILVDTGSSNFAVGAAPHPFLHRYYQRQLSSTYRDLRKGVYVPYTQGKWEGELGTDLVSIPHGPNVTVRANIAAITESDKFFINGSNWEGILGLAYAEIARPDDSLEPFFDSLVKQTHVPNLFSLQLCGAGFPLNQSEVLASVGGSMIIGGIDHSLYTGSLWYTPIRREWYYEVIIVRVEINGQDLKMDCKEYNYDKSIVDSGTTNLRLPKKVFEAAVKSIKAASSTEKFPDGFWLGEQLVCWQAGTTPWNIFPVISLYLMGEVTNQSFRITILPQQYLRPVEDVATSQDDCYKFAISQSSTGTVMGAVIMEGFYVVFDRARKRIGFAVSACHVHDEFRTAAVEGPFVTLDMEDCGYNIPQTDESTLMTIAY

IC50 [nM]	Structure (SMILES)
311	COc1cc(Cl)cc(-c2cc(C3(c4cccc(OS(=O)(=O)C(C)C)c4)N=C(N)N(C)C3=O)ccc2F)c1 (stereo not shown) [Example 107, 3-[2-Amino-4-(3′-chloro-6-fluoro-5′-methoxybiphenyl-3-yl)-1-methyl-5-oxo-4,5-dihydro-1H-imidazol-4-yl]phenyl propane-2-sulfonate]

Same assay, conditions: substrate (Europium)CEVNLDAEFK(Qsy7) 100 nM, pH 4.5, 15 min at RT; read-out: IC50 (nM) in TR-FRET assay

IC50 [nM]	Structure (SMILES)
99	CCc1cc(C2(c3ccc(F)c(-c4cc(OC)cc(OS(C)(=O)=O)c4)c3)N=C(N)N(C)C2=O)cc(CC)n1 (stereo not shown) [Example 209, 5′-[2-Amino-4-(2,6-diethylpyridin-4-yl)-1-methyl-5-oxo-4,5-dihydro-1H-imidazol-4-yl]-2′-fluoro-5-methoxybiphenyl-3-yl methanesulfonate hydrochloride]
1020	CN1C(=O)C(c2ccc(OS(=O)(=O)c3cn(C)cn3)cc2)(c2ccc(F)c(-c3cccnc3)c2)N=C1N (stereo not shown) [Example 287, 4-[2-Amino-4-(4-fluoro-3-pyridin-3-ylphenyl)-1-methyl-5-oxo-4,5-dihydro-1H-imidazol-4-yl]phenyl 1-methyl-1H-imidazole-4-sulfonate]
19	CN1C(=O)C(c2ccc(OS(=O)(=O)c3ccccc3)cc2)(c2ccc(F)c(-c3cncnc3)c2)N=C1N (stereo not shown) [Example 185, 4-[2-Amino-4-(4-fluoro-3-pyrimidin-5-ylphenyl)-1-methyl-5-oxo-4,5-dihydro-1H-imidazol-4-yl]phenyl benzenesulfonate hydrochloride]
40	COc1cncc(-c2cc(C3(c4ccc(OS(=O)(=O)C(F)(F)F)cc4)N=C(N)N(C)C3=O)ccc2F)c1 (stereo not shown) [Example 148, 4-{2-Amino-4-[4-fluoro-3-(5-methoxypyridin-3-yl)phenyl]-1-methyl-5-oxo-4,5-dihydro-1H-imidazol-4-yl}phenyl trifluoromethanesulfonate 0.5 acetate]
116	CN1C(=O)C(c2ccc(OS(=O)(=O)C(F)(F)F)cc2)(c2ccc(F)c(-c3cncc(Cl)c3)c2)N=C1N (stereo not shown) [Example 140, 4-{2-Amino-4-[3-(5-chloropyridin-3-yl)-4-fluorophenyl]-1-methyl-5-oxo-4,5-dihydro-1H-imidazol-4-yl}phenyl trifluoromethanesulfonate 0.75 acetate]
18	COc1cc(OS(C)(=O)=O)cc(-c2cccc(C3(c4ccc(OC(F)F)cc4)N=C(N)N(C)C3=O)c2)c1 (stereo not shown) [Example 63, 3′-{2-Amino-4-[4-(difluoromethoxy)phenyl]-1-methyl-5-oxo-4,5-dihydro-1H-imidazol-4-yl}-5-methoxybiphenyl-3-yl methanesulfonate 0.25acetate]
227	CC(C)S(=O)(=O)Oc1cccc(C2(c3ccc(F)c(-c4cc(Cl)cnc4F)c3)N=C(N)N(C)C2=O)c1 (stereo not shown) [Example 103, 3-{2-Amino-4-[3-(5-chloro-2-fluoropyridin-3-yl)-4-fluorophenyl]-1-methyl-5-oxo-4,5-dihydro-1H-imidazol-4-yl}phenyl propane-2-sulfonate]
59	COc1ccc(OC)c(S(=O)(=O)Oc2ccc(C3(c4ccc(F)c(-c5cccnc5)c4)N=C(N)N(C)C3=O)cc2)c1 (stereo not shown) [Example 282, 4-[2-Amino-4-(4-fluoro-3-pyridin-3-ylphenyl)-1-methyl-5-oxo-4,5-dihydro-1H-imidazol-4-yl]phenyl 2,5-dimethoxybenzenesulfonate0.25 acetate]
343	CC(C)S(=O)(=O)Oc1cccc(C2(c3ccc(F)c(-c4cccnc4)c3)N=C(N)N(C)C2=O)c1 (stereo not shown) [Example 105, 3-[2-Amino-4-(4-fluoro-3-pyridin-3-ylphenyl)-1-methyl-5-oxo-4,5-dihydro-1H-imidazol-4-yl]phenylpropane-2-sulfonate]
46	COc1ccc(C#N)c(-c2cc(C3(c4ccc(OS(C)(=O)=O)cc4)N=C(N)N(C)C3=O)ccc2F)c1 (stereo not shown) [Example 167, 4-[2-Amino-4-(2′-cyano-6-fluoro-5′-methoxybiphenyl-3-yl)-1-methyl-5-oxo-4,5-dihydro-1H-imidazol-4-yl]phenyl methanesulfonate]
65	CN1C(=O)C(c2ccc(OS(=O)(=O)c3c(F)cccc3F)cc2)(c2ccc(F)c(-c3cncnc3)c2)N=C1N (stereo not shown) [Example 278, 4-[2-Amino-4-(4-fluoro-3-pyrimidin-5-ylphenyl)-1-methyl-5-oxo-4,5-dihydro-1H-imidazol-4-yl]phenyl 2,6-difluorobenzenesulfonate]
96	CCc1ccc(C2(c3ccc(F)c(-c4cncnc4)c3)N=C(N)N(C)C2=O)cc1OS(C)(=O)=O (stereo not shown) [Example 253, 5-[2-Amino-4-(4-fluoro-3-pyrimidin-5-ylphenyl)-1-methyl-5-oxo-4,5-dihydro-1H-imidazol-4-yl]-2-ethylphenyl methanesulfonate 0.5 acetate]
1200	COc1ccnc(-c2cc(C3(c4cccc(OS(C)(=O)=O)c4)N=C(N)N(C)C3=O)ccc2F)n1 (stereo not shown) [Example 7, 3-{2-Amino-4-[4-fluoro-3-(4-methoxypyrimidin-2-yl)phenyl]-1-methyl-5-oxo-4,5-dihydro-1H-imidazol-4-yl}phenyl methanesulfonate 0.5 acetate]
321	CN1C(=O)C(c2cccc(OS(=O)(=O)c3c(Cl)nc4sccn34)c2)(c2ccc(F)c(Br)c2)N=C1N (stereo not shown) [Example 233, 3-[2-Amino-4-(3-bromo-4-fluorophenyl)-1-methyl-5-oxo-4,5-dihydro-1H-imidazol-4-yl]phenyl 6-chloroimidazo[2,1-b][1,3]thiazole-5-sulfonate]
20	CN1C(=O)C(c2cccc(OS(=O)(=O)c3ccc4c(c3)oc(=O)n4C)c2)(c2ccc(F)c(-c3cncnc3)c2)N=C1N (stereo not shown) [Example 240, 3-[2-Amino-4-(4-fluoro-3-pyrimidin-5-ylphenyl)-1-methyl-5-oxo-4,5-dihydro-1H-imidazol-4-yl]phenyl 3-methyl-2-oxo-2,3-dihydro-1,3-benzoxazole-6-sulfonate]
472	CN1C(=O)C(c2cccc(OS(C)(=O)=O)c2)(c2ccc(F)c(-c3cncnc3)c2)N=C1N (stereo not shown) [Example 94, 3-[2-Amino-4-(4-fluoro-3-pyrimidin-5-ylphenyl)-1-methyl-5-oxo-4,5-dihydro-1H-imidazol-4-yl]phenyl methanesulfonate]
1650	CN1C(=O)C(c2ccc(OS(C)(=O)=O)cc2)(c2cncc(-c3cccnc3F)c2)N=C1N (stereo not shown) [Example 22, 4-[2-amino-4-(2′-fluoro-3,3′-bipyridin-5-yl)-1-methyl-5-oxo-4,5-dihydro-1H-imidazol-4-yl]phenyl methanesulfonate 0.5 acetate]
1680	CCN1C(=O)C(c2ccc(OS(C)(=O)=O)cc2)(c2ccc(F)c(-c3cc(Cl)cc(Cl)c3)c2)N=C1N (stereo not shown) [Example 161, 4-[2-Amino-4-(3′,5′-dichloro-6-fluorobiphenyl-3-yl)-1-ethyl-5-oxo-4,5-dihydro-1H-imidazol-4-yl]phenyl methanesulfonate]
25	COc1cc(OS(C)(=O)=O)cc(-c2cccc(C3(c4ccc(OC)c(C(F)(F)F)c4)N=C(N)N(C)C3=O)c2)c1 (stereo not shown) [Example 60, 3′-{2-Amino-4-[4-methoxy-3-(trifluoromethyl)phenyl]-1-methyl-5-oxo-4,5-dihydro-1H-imidazol-4-yl}-5-methoxybiphenyl-3-yl methanesulfonate]
24	CN1C(=O)C(c2cccc(-c3cc(Cl)cc(OS(C)(=O)=O)c3)c2)(c2ccnc(Cl)c2)N=C1N (stereo not shown) [Example 311, 3′-(2-Amino-4-(2-chloropyridin-4-yl)-1-methyl-5-oxo-4,5-dihydro-1H-imidazol-4-yl)-5-chlorobiphenyl-3-yl methanesulfonate hydrochloride]
65	CN1C(=O)C(c2cccc(OS(=O)(=O)c3c(F)cccc3F)c2)(c2ccc(F)c(-c3cncnc3)c2)N=C1N (stereo not shown) [Example 236, 3-[2-Amino-4-(4-fluoro-3-pyrimidin-5-ylphenyl)-1-methyl-5-oxo-4,5-dihydro-1H-imidazol-4-yl]phenyl 2,6-difluorobenzenesulfonate]
41	COc1cc(C#N)cc(-c2cc(C3(c4ccc(OS(C)(=O)=O)cc4)N=C(N)N(C)C3=O)ccc2F)c1 (stereo not shown) [Example 71, 4-[2-Amino-4-(3′-cyano-6-fluoro-5′-methoxybiphenyl-3-yl)-1-methyl-5-oxo-4,5-dihydro-1H-imidazol-4-yl]phenyl methanesulfonate hydrochloride]
53	COc1ccnc(-c2cc(C3(c4ccc(OS(C)(=O)=O)cc4)N=C(N)N(C)C3=O)ccc2F)c1 (stereo not shown) [Example 301, 4-{2-Amino-4-[4-fluoro-3-(4-methoxypyridin-2-yl)phenyl]-1-methyl-5-oxo-4,5-dihydro-1H-imidazol-4-yl}phenyl methanesulfonate 0.75 acetate]

Structure (SMILES)	IC50 [nM]
CN1C(=O)C(c2ccc(OC(F)(F)F)cc2)(c2cccc(-c3cc(Cl)cc(OS(C)(=O)=O)c3)c2)N=C1N (stereo not shown) [Example 59, 3′-{2-Amino-1-methyl-5-oxo-4-[4-(trifluoromethoxy)phenyl]-4,5-dihydro-1H-imidazol-4-yl}-5-chlorobiphenyl-3-ylmethanesulfonate]	128
